Experimental data reported in US8633242B2, “Benzylidene indanones and processes for preparation and use thereof” (Council of Scientific and Industrial Research, priority 2011, dated 2014).
“Also recorded” adds a separate entry of the source.

Assays:
A549 (Lung) = assay: Sulphorhodamine B cytotoxicity assay, A549; type: cell-based, human; conditions: Homo sapiens, A549; SRB assay, 48 hours incubation; read-out: Human cancer cell lines IC50, A549 (Lung)
Summary of the method: (§1)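 Cells grown in RPMI-1640 with 10% FBS for 24 h, then exposed to compounds (DMSO stocks diluted in medium) for 48 h at 37 °C, 5% CO2. TCA-fixed cells stained with sulforhodamine B and the solubilised dye read at 540 nm as a measure of growth.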

PC-3 (prostate) = assay: Sulphorhodamine B cytotoxicity assay, PC-3; type: cell-based, human; parameters: key to Human cancer cell lines IC50, PC-3 (prostate): Inactive: inactive, if IC50 > 100 μM; conditions: SRB assay, 48 hours incubation
Summary of the method: as §1

HCT (Colon) = assay: Sulphorhodamine B cytotoxicity assay, HCT; type: cell-based, human
Summary of the method: as §1

THP-1 (Leukemia) = assay: Sulphorhodamine B cytotoxicity assay, THP-1; type: cell-based, human
Summary of the method: as §1

HeLa (Cervix) = assay: Sulphorhodamine B cytotoxicity assay, HeLa; type: cell-based, human; conditions: Homo sapiens, HeLa; SRB assay, 48 hours incubation; read-out: Human cancer cell lines IC50, HeLa (Cervix)
Summary of the method: as §1

MCF-7 (Breast cancer) = assay: Sulphorhodamine B cytotoxicity assay, MCF-7; type: cell-based, human
Summary of the method: as §1

DU-145 (prostate) = assay: Sulphorhodamine B cytotoxicity assay, DU-145; type: cell-based, human; parameters: key to Human cancer cell lines IC50, DU-145 (prostate): Inactive: inactive, if IC50 > 100 μM; conditions: SRB assay, 48 hours incubation
Summary of the method: as §1

tubulin protein = assay: In-vitro tubulin polymerisation inhibition assay; type: biochemical
Summary of the method: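 Tubulin (3 mg/mL) in PIPES buffer pH 6.9 with MgCl2, EGTA, 1 mM GTP and 15% glycerol was incubated at 37 °C with varying compound concentrations. Polymerization was followed by absorbance at 340 nm every min for 1 h. IC50 is the concentration halving polymerization rate, from dose-dependent analysis.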

[1] = system: various human cancer cell lines; assay: Cytotoxicity against various human cancer cell lines (summary statements); type: cell-based
Protocol: The benzylidene analogues were evaluated by Sulphorhodamine B Assay as per reported method [Skehan et al., J. Natl. Cancer Inst. 1990, 82, 1107]. The human cancer cell lines procured from National Cancer institute, Frederick, U.S.A. were used in present study. Cells were grown in tissue culture flasks in complete growth medium (RPMI-1640 medium with 2 mM glutamine, pH 7.4 supplemented with 10% fetal bovine serum, 100 μg/ml streptomycin and 100 units/ml penicillin) in a carbon dioxide incubator (37° C., 5% CO2, 90% RH). The cells at subconfluent stage were harvested from the flask by treatment with trypsin (0.05% in PBS (pH 7.4) containing 0.02% EDTA). Cells with viability of more than 98%, as determined by trypan blue exclusion, were used for determination of cytotoxicity. The cell suspension required concentration of cells was prepared in complete growth medium. Stock solution of 2×10^−2 M of compounds were prepared in DMSO and further dilution was carried out complete growth medium containing 50 μg/ml of gentamycin to obtained working test solution of required concentration. In vitro cytotoxicity against various human cancer cell lines was determined using 96-well cell culture plates. […] Cell growth was measured by staining with sulforhodamine B dye. […] The optical density (OD) was recorded on ELISA reader at 540 nm. […]

Question: Which results are given for COc1cc(C2/C(=C/c3ccc4c(c3)OCO4)C(=O)c3cc(OC)c(OC)c(OC)c32)cc(OC)c1OC (racemic) [Compound 8, 2-(3,4-Methylenedioxybenzylidine), 3-(3,4,5-trimethoxyphenyl), 4,5,6-trimethoxyindanone]?
Answer: IC50 (A549 (Lung)): 11 µM; Human cancer cell lines IC50, PC-3 (prostate) (PC-3 (prostate)): Inactive; activity against HCT (Colon) cancer cell line, in words (HCT (Colon)): better activity; IC50 (HCT (Colon); Homo sapiens, SRB assay, 48 hours incubation, read-out: Human cancer cell lines IC50, HCT (Colon)): 0.1 µM; activity against leukemia cell lines (THP), in words (THP-1 (Leukemia)): potent activity; IC50 (THP-1 (Leukemia); Homo sapiens, THP-1, SRB assay, 48 hours incubation, read-out: Human cancer cell lines IC50, THP-1 (Leukemia)): 4.9 µM; IC50 (HeLa (Cervix)): 23 µM; anticancer activity against human breast cancer cells (MCF-7), in words (MCF-7 (Breast cancer)): better activity; also recorded: potent anticancer activity; IC50 (MCF-7 (Breast cancer); Homo sapiens, MCF7, SRB assay, 48 hours incubation, read-out: Human cancer cell lines IC50, MCF-7 (Breast cancer)): 0.01 µM; Human cancer cell lines IC50, DU-145 (prostate) (DU-145 (prostate)): Inactive; inhibition of tubulin polymerisation, in words (tubulin protein): tubulin polymerisation inhibition; also recorded: strong inhibition; IC50 (tubulin protein; read-out: Tubulin polymerisation inhibition IC50, tubulin 3 mg/mL, 37° C., 340 nm, 1 h): 0.63 µM; anticancer activity against human cancer cell lines, in words [1]: exhibits anticancer activity
